Source: patent US20170349593A1, “BTK INHIBITORS” (MERCK SHARP & DOHME CORP., priority 2014, published 2017)

How the values were obtained:
[1] = tested on: adenosine uptake into HeLa cells; experiment: [3H]Adenosine uptake assay; assay type: cell-based; details: Homo sapiens; accumulation of [3H]adenosine into HeLa cells; concentration range 10 μM to 0.032 nM; read-out: ADU inhibition IC50
How it was run: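 HeLa cells (25 000/well), plated overnight, were preincubated 30 minutes at ambient temperature with compound in HBSS + 5% FBS. Ten-point titrations ran from 10 μM to 0.032 nM final. [3H]adenosine was added from a 500 nM solution for 60 minutes, and uptake was measured by scintillation proximity counting; IC50 came from a 4-parameter fit.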

[2] = biological target: T1, BTK enzyme (recombinant full-length BTK, hBTK) (Homo sapiens, UniProt Q06187); experiment: Btk enzyme activity assay (LANCE TR-FRET); assay type: biochemical; details: 50 pM hBTK, 25 μM ATP, 60 minute compound and enzyme incubation, concentration range 1 μM to 0.017 nM, read-out: BTK binding IC50
T1 construct: recombinant protein from baculovirus-transfected S 19 cells: full-length BTK, 6 HIS-tag cleaved; 6 HIS-tag (cleaved yes); made in house
T1 sequence (Q06187 whole entry): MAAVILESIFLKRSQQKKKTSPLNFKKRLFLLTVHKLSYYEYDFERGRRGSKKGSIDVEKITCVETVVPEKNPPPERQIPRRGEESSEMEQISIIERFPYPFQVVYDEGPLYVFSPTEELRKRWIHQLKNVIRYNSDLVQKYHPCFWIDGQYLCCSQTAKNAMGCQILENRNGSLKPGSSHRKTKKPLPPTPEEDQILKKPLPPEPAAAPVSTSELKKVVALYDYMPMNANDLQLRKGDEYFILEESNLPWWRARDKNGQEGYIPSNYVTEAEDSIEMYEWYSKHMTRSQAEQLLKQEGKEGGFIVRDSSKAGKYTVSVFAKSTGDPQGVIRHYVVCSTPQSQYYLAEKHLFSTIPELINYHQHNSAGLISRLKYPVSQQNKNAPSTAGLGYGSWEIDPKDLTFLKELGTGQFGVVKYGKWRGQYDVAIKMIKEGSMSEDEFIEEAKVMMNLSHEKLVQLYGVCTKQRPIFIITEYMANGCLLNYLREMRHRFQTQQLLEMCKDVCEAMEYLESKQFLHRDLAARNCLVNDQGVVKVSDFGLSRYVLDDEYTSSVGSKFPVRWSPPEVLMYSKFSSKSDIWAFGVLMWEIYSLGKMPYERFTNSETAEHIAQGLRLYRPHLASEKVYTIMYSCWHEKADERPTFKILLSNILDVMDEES

| Structure (SMILES) | IC50 [1] [nM] | IC50 [2] [nM] |
| --- | --- | --- |
| CCOc1cc(C(=O)Nc2cc(C(F)(F)F)ccn2)ccc1-c1nc([C@H]2CN(C3CCOCC3)[C@@H](C)CO2)n2c(Cl)cnc(N)c12 [Example 27, 4-{8-amino-5-chloro-3-[(2R,5S)-5-methyl-4-(tetrahydro-2H-pyran-4-yl)morpholin-2-yl]imidazo[1,5-a]pyrazin-1-yl}-3-ethoxy-N-[4-(trifluoromethyl)pyridin-2-yl]benzamide] | 1880 | 2.22 |
| C[C@H]1CC[C@@H](c2nc(-c3ccc(C(=O)Nc4cc(C(C)(F)F)ccn4)cc3)c3c(N)nccn23)CN1C(=O)CO [Example 95, 4-{8-amino-3-[(3R,6S)-1-(hydroxyacetyl)-6-methylpiperidin-3-yl]imidazo[1,5-a]pyrazin-1-yl}-N-[4-(1,1-difluoroethyl)pyridin-2-yl]benzamide] | 175 | 0.168 |
| COc1cc(C(=O)Nc2cc(C(F)(F)F)ccn2)ccc1-c1nc([C@H]2CN(C(=O)[C@H](C)O)[C@@H](C)CO2)n2ccnc(N)c12 [Example 52, 4-(8-amino-3-{(2R,5S)-4-[(2S)-2-hydroxypropanoyl]-5-methylmorpholin-2-yl}imidazo[1,5-a]pyrazin-1-yl)-3-methoxy-N-[4-(trifluoromethyl)pyridin-2-yl]benzamide] | 1990 | 2.26 |
| CCOc1cc(C(=O)Nc2cc(C(F)(F)F)ccn2)ccc1-c1nc([C@@H]2CC[C@@H](C(F)(F)F)N(C(=O)C3CC3)C2)n2ccnc(N)c12 [Example 4, 4-{8-amino-3-[(3R,6S)-1-(cyclopropylcarbonyl)-6-(trifluoromethyl)piperidin-3-yl]imidazo[1,5-a]pyrazin-1-yl}-3-ethoxy-N-[4-(trifluoromethyl)pyridin-2-yl]benzamide] | 1060 | 39.4 |
| COc1cc(C(=O)Nc2cc(C(F)(F)F)ccn2)ccc1-c1nc([C@H]2CN(C3CN(Cc4ccc(F)cc4)C3)[C@@H](C)CO2)n2ccnc(N)c12 [Example 31, 4-(8-amino-3-{(2R,5S)-4-[1-(4-fluorobenzyl)azetidin-3-yl]-5-methylmorpholin-2-yl}imidazo[1,5-a]pyrazin-1-yl)-3-methoxy-N-[4-(trifluoromethyl)pyridin-2-yl]benzamide] | 1040 | 4.49 |
| CCOc1cc(C(=O)Nc2cc(C(F)(F)F)n(C)n2)ccc1-c1nc([C@H]2CN(C3CCOCC3)[C@@H](C)CO2)n2ccnc(N)c12 [Example 39, 4-{8-amino-3-[(2R,5S)-5-methyl-4-(tetrahydro-2H-pyran-4-yl)morpholin-2-yl]imidazo[1,5-a]pyrazin-1-yl}-3-ethoxy-N-[1-methyl-5-(trifluoromethyl)-1H-pyrazol-3-yl]benzamide] | 3800 | 5.87 |
| COc1cc(C(=O)Nc2cc(C(F)(F)F)ccn2)ccc1-c1nc([C@H]2CN(C(=O)C3CN(Cc4ccccc4F)C3)[C@@H](C)CO2)n2ccnc(N)c12 [Example 37, 4-{8-amino-3-[(2R,5S)-4-{[1-(2-fluorobenzyl)azetidin-3-yl]carbonyl}-5-methylmorpholin-2-yl]imidazo[1,5-a]pyrazin-1-yl}-3-methoxy-N-[4-(trifluoromethyl)pyridin-2-yl]benzamide] | 702 | 2.77 |
| COc1cc(C(=O)Nc2cc(C(F)(F)F)ccn2)ccc1-c1nc([C@H]2CN(C3CN(C(=O)C4CC4)C3)[C@@H](C)CO2)n2ccnc(N)c12 [Example 29, 4-(8-amino-3-{(2R,5S)-4-[1-(cyclopropylcarbonyl)azetidin-3-yl]-5-methylmorpholin-2-yl}imidazo[1,5-a]pyrazin-1-yl)-3-methoxy-N-[4-(trifluoromethyl)pyridin-2-yl]benzamide] | 3860 | 3.45 |
| CCOc1cc(C(=O)Nc2cc(C(F)(F)F)ccn2)c(F)cc1-c1nc([C@H]2CN(C(=O)C3CC3)[C@@H](C)CO2)n2c(Cl)cnc(N)c12 [Example 105, 4-{8-amino-5-chloro-3-[(2R,5S)-4-(cyclopropylcarbonyl)-5-methylmorpholin-2-yl]imidazo[1,5-a]pyrazin-1-yl}-5-ethoxy-2-fluoro-N-[4-(trifluoromethyl)pyridin-2-yl]benzamide] | 5160 | 2.52 |
| CCN1C[C@H](c2nc(-c3ccc(C(=O)Nc4cc(C(F)(F)F)ccn4)cc3OC)c3c(N)ncc(Cl)n23)OC[C@@H]1C [Example 26, 4-{8-amino-5-chloro-3-[(2R,5S)-4-ethyl-5-methylmorpholin-2-yl]imidazo[1,5-a]pyrazin-1-yl}-3-methoxy-N-[4-(trifluoromethyl)pyridin-2-yl]benzamide] | 1020 | 3.62 |
| COc1cc(C(=O)Nc2cc(C(F)(F)F)ccn2)ccc1-c1nc([C@H]2CN(C(=O)C3CN(Cc4c(F)cccc4F)C3)[C@@H](C)CO2)n2ccnc(N)c12 [Example 35, 4-{8-amino-3-[(2R,5S)-4-{[1-(2,6-difluorobenzyl)azetidin-3-yl]carbonyl}-5-methylmorpholin-2-yl]imidazo[1,5-a]pyrazin-1-yl}-3-methoxy-N-[4-(trifluoromethyl)pyridin-2-yl]benzamide] | 747 | 3.21 |
| COc1cc(C(=O)Nc2cc(C(F)(F)F)ccn2)ccc1-c1nc([C@H]2CN(C(C)=O)[C@@H](C)CO2)n2c(Cl)cnc(N)c12 [Example 17, 4-{3-[(2R,5S)-4-acetyl-5-methylmorpholin-2-yl]-8-amino-5-chloroimidazo[1,5-a]pyrazin-1-yl}-3-methoxy-N-[4-(trifluoromethyl)pyridin-2-yl]benzamide] | 1620 | 2.27 |
| C[C@H]1CC[C@@H](c2nc(-c3ccc(C(=O)Nc4cc(C(C)(F)F)ccn4)cc3)c3c(N)nccn23)CN1C(=O)N(C)C [Example 96, (2S,5R)-5-[8-amino-1-(4-{[4-(1,1-difluoroethyl)pyridin-2-yl]carbamoyl}phenyl)imidazo[1,5-a]pyrazin-3-yl]-N,N,2-trimethylpiperidine-1-carboxamide] | 69.8 | 0.168 |
| COc1cc(C(=O)Nc2cc(C(F)(F)F)ccn2)ccc1-c1nc([C@H]2CN(C3CCOCC3)[C@@H](C)CO2)n2c(Cl)cnc(N)c12 [Example 46, 4-{8-amino-5-chloro-3-[(2R,5S)-5-methyl-4-(tetrahydro-2H-pyran-4-yl)morpholin-2-yl]imidazo[1,5-a]pyrazin-1-yl}-3-methoxy-N-[4-(trifluoromethyl)pyridin-2-yl]benzamide] | 2160 | 1.94 |
| C[C@H](O)C(=O)N1C[C@H](c2nc(-c3ccc(C(=O)Nc4cc(C(F)(F)F)ccn4)cc3)c3c(N)nccn23)OC[C@@H]1C [Example 80, 4-(8-amino-3-{(2R,5S)-4-[(2S)-2-hydroxypropanoyl]-5-methylmorpholin-2-yl}imidazo[1,5-a]pyrazin-1-yl)-N-[4-(trifluoromethyl)pyridin-2-yl]benzamide] | 188 | 0.4 |

Other lines, results leading:

| IC50 [1] [nM] | IC50 [2] [nM] | Structure (SMILES) |
| --- | --- | --- |
| 3910 | 1.36 | CCOc1cc(C(=O)Nc2cc(C(F)(F)F)ccn2)ccc1-c1nc([C@H]2CN(C(C)=O)[C@@H](C)CO2)n2c(Cl)cnc(N)c12 [Example 20, 4-{3-[(2R,5S)-4-acetyl-5-methylmorpholin-2-yl]-8-amino-5-chloroimidazo[1,5-a]pyrazin-1-yl}-3-ethoxy-N-[4-(trifluoromethyl)pyridin-2-yl]benzamide] |
| ≥ 10000 | 1.19 | CCOc1cc(C(=O)Nc2cc(C(F)(F)F)ccn2)ccc1-c1nc([C@H]2CN(C(=O)C3CC3)[C@@H](C)CO2)n2c(Cl)cnc(N)c12 [Example 8, 4-{8-amino-5-chloro-3-[(2R,5S)-4-(cyclopropylcarbonyl)-5-methylmorpholin-2-yl]imidazo[1,5-a]pyrazin-1-yl}-3-ethoxy-N-[4-(trifluoromethyl)pyridin-2-yl]benzamide] |
| 4530 | 1.21 | CCOc1cc(C(=O)Nc2cc(C(F)(F)F)ccn2)ccc1-c1nc([C@H]2CN(C(=O)[C@H](C)O)[C@@H](C)CO2)n2c(Cl)cnc(N)c12 [Example 22, 4-(8-amino-5-chloro-3-{(2R,5S)-4-[(2S)-2-hydroxypropanoyl]-5-methylmorpholin-2-yl}imidazo[1,5-a]pyrazin-1-yl)-3-ethoxy-N-[4-(trifluoromethyl)pyridin-2-yl]benzamide] |
| 1690 | 2.04 | COc1cc(C(=O)Nc2cc(C(F)(F)F)ccn2)ccc1-c1nc([C@H]2CN(C(=O)[C@@H](C)O)[C@@H](C)CO2)n2c(Cl)cnc(N)c12 [Example 14, 4-(8-amino-5-chloro-3-{(2R,5S)-4-[(2R)-2-hydroxypropanoyl]-5-methylmorpholin-2-yl}imidazo[1,5-a]pyrazin-1-yl)-3-methoxy-N-[4-(trifluoromethyl)pyridin-2-yl]benzamide] |
| 2800 | 2.25 | COc1cc(C(=O)Nc2cc(C(F)(F)F)ccn2)ccc1-c1nc([C@H]2CN(C(=O)[C@H](C)O)[C@@H](C)CO2)n2c(Cl)cnc(N)c12 [Example 38, 4-(8-amino-5-chloro-3-{(2R,5S)-4-[(2S)-2-hydroxypropanoyl]-5-methylmorpholin-2-yl}imidazo[1,5-a]pyrazin-1-yl)-3-methoxy-N-[4-(trifluoromethyl)pyridin-2-yl]benzamide] |
| ≥ 10000 | 1.67 | CCOc1cc(C(=O)Nc2cc(C(F)(F)F)ccn2)ccc1-c1nc([C@H]2CN(C(=O)C(C)C)[C@@H](C)CO2)n2c(Cl)cnc(N)c12 [Example 7, 4-{8-amino-5-chloro-3-[(2R,5S)-5-methyl-4-(2-methylpropanoyl)morpholin-2-yl]imidazo[1,5-a]pyrazin-1-yl}-3-ethoxy-N-[4-(trifluoromethyl)pyridin-2-yl]benzamide] |
